The Deep4Chem optical property database

Assay: solvent given as SMILES

With `CCN(CC)c1cccc2c1ccc1c(=O)oc(-c3ccc(C(F)(F)F)cc3)cc12` the absorption maximum (in CC(C)=O) was 390 nm, the absorption maximum (in CCCCCC) was 388 nm and the absorption maximum (in CCCCCCCCO) was 393 nm. For the same compound, the absorption maximum (in CCCCO) was 392 nm, the absorption maximum (in CCCO) was 391 nm and the absorption maximum (in CCO) was 392 nm. The absorption maximum (in CCOC(C)=O) was 389 nm, the absorption maximum (in CN(C)C=O) was 394 nm and the absorption maximum (in CO) was 391 nm.

`COc1ccc(C2=[N+]3C(=Nc4c(-c5ccccc5-c5ccc(C(C)(C)C)cc5)cc(-c5ccc(OC)cc5)n4[B-]3(F)F)c3c2c2cc(C(C)(C)C)ccc2c2ccccc32)cc1` showed an absorption maximum (in Cc1ccccc1) of 701 nm.

Work on `C=Cc1ccc(OC)cc1` yielded an absorption maximum (in C1CCCCC1) of 302 nm.

`CC1(C)C(/C=C/C2=C(Cl)C(=C/C=C3/N(CCCCCC(=O)O)c4ccccc4C3(C)C)/CCC2)=[N+](CCCCCC(=O)O)c2ccccc21` showed an absorption maximum (in CO) of 782 nm.

`CCOC(=O)c1sc2nc(C)c(C)c(C#N)c2c1N` showed an absorption maximum (in c1ccccc1) of 406 nm.

`Cn1c(-c2ccc(-c3nc(-c4ccccc4)c(-c4ccccc4)n3C)s2)nc(-c2ccccc2)c1-c1ccccc1` showed an absorption maximum (in CC#N) of 391 nm.

For `O=C1c2cc3ccccc3cc2C2=Nc3cccc[n+]3[B-](F)(F)N12`, the absorption maximum (in ClCCl) was 396 nm.

With `CCN(CC)c1ccc2cc(-c3ccc(S(C)(=O)=O)cc3)oc(=O)c2c1` the absorption maximum (in CC(C)=O) was 375 nm, the absorption maximum (in CCCCCC) was 373 nm and the absorption maximum (in CCCCO) was 378 nm. For the same compound, the absorption maximum (in CCCO) was 378 nm, the absorption maximum (in CCO) was 376 nm and the absorption maximum (in CCOC(C)=O) was 374 nm. The absorption maximum (in CN(C)C=O) was 379 nm, the absorption maximum (in CO) was 376 nm and the absorption maximum (in ClC(Cl)Cl) was 383 nm.

With `F[B-]1(F)n2cccc2C(c2ccc(-c3c4ccccc4c(-c4ccccc4)c4ccccc34)cc2)=C2C=CC=[N+]21` the absorption maximum (in CC#N) was 498 nm, the absorption maximum (in CCCCCC) was 501 nm and the absorption maximum (in CCO) was 500 nm. For the same compound, the absorption maximum (in CN(C)C=O) was 502 nm, the absorption maximum (in Cc1ccccc1) was 505 nm and the absorption maximum (in ClCCl) was 502 nm.

Work on `CC(NC(=O)OC(C)(C)C)C(=O)OCc1ccc2c3cccc4cccc(c5cccc1c52)c43` (stereo unspecified) yielded an absorption maximum (in CCO) of 437 nm.

With `CN1C(=CC2=C([O-])C(=Cc3sc4ccccc4[n+]3C)C2=C(C#N)C#N)C(C)(C)c2ccccc21` the absorption maximum (in ClC(Cl)Cl) was 691 nm.

`O=C1C=C(Nc2cc(F)cc(F)c2)C(=O)c2ccccc21` gave an absorption maximum (in CO) of 448 nm.

`CSc1ccc(/C=C/c2cnc3ccccc3n2)cc1` showed an absorption maximum (in C1CCOC1) of 376 nm, an absorption maximum (in CC#N) of 377 nm and an absorption maximum (in CCCCCCC) of 373 nm. It also gave an absorption maximum (in CS(C)=O) of 383 nm and an absorption maximum (in ClCCl) of 381 nm.

`CN(C)c1ccc(C2=Cc3cccc[n+]3[B-](F)(F)O2)cc1` showed an absorption maximum (in C1CCOC1) of 420 nm, an absorption maximum (in C1COCCO1) of 417 nm and an absorption maximum (in CC1CCCCC1) of 413 nm. For the same compound, the absorption maximum (in CC#N) was 417 nm, the absorption maximum (in CCOC(C)=O) was 416 nm and the absorption maximum (in CCOCC) was 413 nm. It also gave an absorption maximum (in CN(C)C=O) of 423 nm, an absorption maximum (in CO) of 418 nm and an absorption maximum (in COC(C)=O) of 417 nm. The absorption maximum (in ClC(Cl)Cl) was 426 nm.

Compound `C[SiH](C)c1ccc([SiH](C)C)c2ccccc12` has an absorption maximum (in C1CCCCC1) of 300 nm.

`NC(=O)CC[C@H](/[NH+]=C\C=C1\C=C(C(=O)O)N[C@H](C(=O)O)C1)C(=O)O` showed an absorption maximum (in CCO) of 474 nm, an absorption maximum (in CO) of 471 nm and an absorption maximum (in O) of 475 nm. It also gave an absorption maximum (in OCC(F)(F)F) of 473 nm and an absorption maximum (in OCCO) of 478 nm.

In the case of `COc1ccc(-c2cc(-c3ccc(OC)cc3)c3c(N)nc(N4CCCC4)c(C#N)c3n2)cc1`, the absorption maximum (in CC#N) is reported as 416 nm, the absorption maximum (in CC(C)=O) is reported as 416 nm and the absorption maximum (in CC(C)O) is reported as 412 nm. The absorption maximum (in CO) was 412 nm, the absorption maximum (in ClC(Cl)Cl) was 420 nm and the absorption maximum (in ClCCl) was 418 nm. For the same compound, the absorption maximum (in c1ccccc1) was 420 nm.

Work on `Oc1ccc2ccccc2c1/C=N/c1cc2nc3ccccc3nc2cc1/N=C/c1c(O)ccc2ccccc12` yielded an absorption maximum (in CC#N) of 420 nm.

`C[n+]1c2c(c(-c3ccccc3)c3c1CCCC3)CCCC2` gave an absorption maximum (in CCO) of 340.03 nm.

`CCOC(=O)c1cc(C(=O)OCC)c2cc([N+](=O)[O-])ccc2n1` showed an absorption maximum (in CCO) of 304 nm.

`O=C1c2cccc3c(-n4c5ccccc5c5ccccc54)ccc(c23)C(=O)N1c1ccccc1` gave an absorption maximum (in C1CCOC1) of 408 nm, an absorption maximum (in CCCCCC) of 403 nm and an absorption maximum (in ClC(Cl)Cl) of 405 nm. It also gave an absorption maximum (in ClCCl) of 419 nm.

With `CC(=O)Nc1ccc(C2=C/C(=C\c3ccc(C#N)cc3)C(=O)N2CC(C)C)cc1` the absorption maximum (in C1COCCO1) was 450 nm.

For `O=C1c2cccc3c(NCc4ccccn4)c4ccccc4c(c23)C(=O)N1Cc1ccccn1`, the absorption maximum (in C1CCOC1) was 520 nm, the absorption maximum (in CCCCCC) was 497 nm and the absorption maximum (in CCO) was 533 nm. The absorption maximum (in Cc1ccccc1) was 517 nm and the absorption maximum (in ClCCl) was 527 nm.

In the case of `O=C1c2cc(-n3c4ccccc4c4ccccc43)c(-n3c4ccccc4c4ccccc43)cc2C(=O)N1c1ccccc1`, the absorption maximum (in Cc1ccccc1) is reported as 388 nm.

With `CN1C(=CC2=C([O-])C(=O)C2=C(C#N)C#N)C=Cc2ccccc21` the absorption maximum (in CCO) was 515 nm.

Compound `Nc1nc2ccc(Br)cc2s1` has an absorption maximum (in CC#N) of 269 nm and an absorption maximum (in ClCCl) of 268 nm.

For `CC[N+]1(CC)CN2C(=N1)C(C(=O)O)=Cc1c2ccc2ccccc12`, the absorption maximum (in O) was 406 nm.

With `CCCCCCCCCCCCOc1cc2c3c(ccc4c5c(OC6CCC(C(C)(C)C)CC6)cc6c7c(ccc(c1c34)c75)C(=O)N(C1CCCCC1)C6=O)C(=O)N(C1CCCCC1)C2=O` (stereo unspecified) the absorption maximum (in ClC(Cl)Cl) was 558 nm.

In the case of `O=S(=O)(c1cccc(N2c3ccccc3Oc3ccccc32)c1)c1cccc(N2c3ccccc3Oc3ccccc32)c1`, the absorption maximum (in C1CCOC1) is reported as 317 nm, the absorption maximum (in Cc1ccccc1) is reported as 308 nm and the absorption maximum (in ClC(Cl)Cl) is reported as 315 nm.

For `CCCCCCCCCCCCCCn1c(-c2cc(-c3nc4ccc(C)cc4n3CCCCCCCCCCCCCC)cc(-c3nc4ccc(C)cc4n3CCCCCCCCCCCCCC)c2)nc2ccc(C)cc21`, the absorption maximum (in ClCCl) was 306.5 nm.

Work on `CN(C)c1ccc2nc(/C=C/c3cc4c5c(c3)CCCN5CCC4)c(=O)oc2c1` yielded an absorption maximum (in C1CCCCC1) of 487 nm, an absorption maximum (in C1COCCO1) of 495.5 nm and an absorption maximum (in CC#N) of 507.5 nm. For the same compound, the absorption maximum (in CC(C)=O) was 507 nm, the absorption maximum (in CCCCCCC) was 483 nm and the absorption maximum (in CCO) was 513 nm. For the same compound, the absorption maximum (in CCOC(C)=O) was 501 nm, the absorption maximum (in CN(C)C=O) was 516 nm and the absorption maximum (in CS(C)=O) was 522.5 nm. The absorption maximum (in Cc1ccccc1) was 505.5 nm, the absorption maximum (in ClC(Cl)Cl) was 517 nm and the absorption maximum (in ClCCl) was 514.5 nm.

Compound `c1ccc2c(c1)-c1ccccc1C21c2cc(-c3ccc4ccc5cccc6ccc3c4c56)ccc2-c2ccc(-c3ccc4ccc5cccc6ccc3c4c56)cc21` has an absorption maximum (in ClC(Cl)Cl) of 364 nm.

With `CN1C(=CC2=C([O-])C(=CC3=[N+](C)c4ccccc4C3(C)C)C2=C2C(=O)c3ccccc3C2=O)C(C)(C)c2ccccc21` the absorption maximum (in ClC(Cl)Cl) was 675 nm.

Work on `N#C/C(=C(/C#N)c1ccc(-c2ccncc2)cc1)c1ccc(-c2ccncc2)cc1` yielded an absorption maximum (in ClCCl) of 343 nm.

With `N#Cc1c(N2CCCC2)cc(-c2ccccc2)c2c1-c1ccccc1C2` the absorption maximum (in C1CCOC1) was 353 nm.

Compound `Cc1ccc(C2=C3C=CC4=[N+]3[B-](F)(F)n3c2ccc3-c2ccc([nH]2)/C(c2ccc(C)cc2)=c2/cc/c(o2)=C(\c2ccc(C)cc2)c2ccc4[nH]2)cc1` has an absorption maximum (in ClC(Cl)Cl) of 703 nm.

`CC(C)(C)c1ccc2c(c1)c1cc(C(C)(C)C)ccc1n2-c1ccc(-c2nc(-c3ccc(-n4c5ccc(C(C)(C)C)cc5c5cc(C(C)(C)C)ccc54)cc3)nc(-c3ccc(P(=O)(c4ccccc4)c4ccccc4)cc3)n2)cc1` gave an absorption maximum (in C1CCOC1) of 386.93 nm, an absorption maximum (in CC#N) of 380.02 nm and an absorption maximum (in CC(C)=O) of 380.02 nm. The absorption maximum (in CN(C)C=O) was 384.45 nm, the absorption maximum (in Cc1ccccc1) was 393.2 nm and the absorption maximum (in ClC(Cl)Cl) was 430.07 nm. The absorption maximum (in ClCCl) was 382.72 nm.

`F[B-]1(F)OC(c2ccc(C(F)(F)F)cc2)=Cc2c3ccccc3cc[n+]21` showed an absorption maximum (in ClC(Cl)Cl) of 398.5 nm.

In the case of `CCCCN1/C(=C/C=C/C2=[N+](C)c3ccccc3C2(C)C)C(C)(C)c2cc(Br)ccc21`, the absorption maximum (in CS(C)=O) is reported as 556 nm.

Compound `c1ccc(-n2c3ccccc3c3cc([Si](c4ccccc4)(c4ccccc4)c4ccc5c(c4)c4ccccc4n5-c4ccccc4)ccc32)cc1` has an absorption maximum (in ClCCl) of 342 nm.

For `CN(C)c1cccc2c1C(=O)c1ccccc1C2=O`, the absorption maximum (in C1CCCCC1) was 487 nm, the absorption maximum (in CC1CCCCC1) was 487.5 nm and the absorption maximum (in CC#N) was 502 nm. It also gave an absorption maximum (in CCC(C)CC) of 487 nm, an absorption maximum (in CCCCCC) of 487.5 nm and an absorption maximum (in CCOC(C)=O) of 498 nm.

With `CC(C)(C)c1ccc2c(c1)c1cc(C(C)(C)C)ccc1n2-c1ccc(C#Cc2ccccc2)cc1` the absorption maximum (in CC#N) was 329 nm, the absorption maximum (in CCCCC) was 329 nm and the absorption maximum (in CO) was 329 nm. It also gave an absorption maximum (in Cc1ccccc1) of 335 nm, an absorption maximum (in ClC(Cl)Cl) of 329 nm and an absorption maximum (in ClCCl) of 334 nm.

With `COc1c(-c2ccc(N(C)C)cc2)oc2ccccc2c1=O` the absorption maximum (in C1CCCCC1) was 361 nm, the absorption maximum (in CC#N) was 375 nm and the absorption maximum (in CCOC(C)=O) was 372 nm.

Compound `CN(C)c1ccc(/C=C/c2cc[n+](CCCCC[n+]3ccc(/C=C/c4ccc(N(C)C)cc4)cc3)cc2)cc1` has an absorption maximum (in CC1COC(=O)O1) of 478 nm, an absorption maximum (in CC#N) of 478 nm and an absorption maximum (in CC(C)=O) of 476 nm. It also gave an absorption maximum (in CC(C)O) of 486 nm, an absorption maximum (in CCO) of 492 nm and an absorption maximum (in CN(C)C=O) of 478 nm. For the same compound, the absorption maximum (in CO) was 484 nm, the absorption maximum (in CS(C)=O) was 479 nm and the absorption maximum (in ClC(Cl)Cl) was 494 nm. It also gave an absorption maximum (in O) of 457 nm and an absorption maximum (in c1ccncc1) of 490 nm.

Compound `COc1ccc2c(c1)CCC1=C(C#Cc3ccccc3)O[B-](F)(F)[O+]=C12` has an absorption maximum (in ClCCl) of 443 nm.

`COc1ccc(C2=Cc3c4ccccc4cc[n+]3[B-](F)(F)O2)cc1` gave an absorption maximum (in ClC(Cl)Cl) of 410.5 nm.

`O=c1cc2cc(O)c3cc(O)cc4ccc(o1)c2c43` showed an absorption maximum (in CC1CCCO1) of 476 nm.

Compound `CC(C)(C)c1ccc(-c2nc3c4ccccc4c4ccccc4c3n2-c2ccc(-c3ccc(N(c4ccccc4)c4ccccc4)cc3)cc2)cc1` has an absorption maximum (in ClCCl) of 332 nm.

`CCCCCOc1cc2oc(=O)c3c4occc4c4ccc5cccc6c(c1)c2c3c4c56` showed an absorption maximum (in C1CCOC1) of 422 nm.

With `COc1ccc2c(c1)C(=O)c1ccccc1-2` the absorption maximum (in C1CCCCC1) was 421 nm, the absorption maximum (in CC#N) was 432 nm and the absorption maximum (in CCO) was 433 nm.

For `Cc1c(COC(=O)Cc2cccc3ccccc23)n2c(OCC(=O)Cc3cccc4ccccc34)c(C)c(=O)n2c1=O`, the absorption maximum (in CCO) was 379 nm.
